The source of these data is ChEMBL document CHEMBL1201862, “PubChem BioAssay data set” (2004).

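Interpolation was linear, between the two tested concentrations surrounding the appropriate level; five concentrations were tested over 48 hours in 96-well plates. At the GI50, growth is halved.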 The source made the active and inactive calls. Rule as the data show it: active = GI50 up to about 1.1 µM and inactive = higher.

Test systems include IGROV-1; OVCAR-3; SF-268; SW-620; NCI-H226; DU-145; SF-539; EKVX; NCI-H23; OVCAR-5; NCI/ADR-RES; SK-MEL-28; RXF 393; KM12; U-251; MDA-N; 786-0; SR; HOP-62; CCRF-CEM.
What all share (assay): DTP human tumour cell line panel, 48 h

For `Cc1cc(-c2nc3ccc(F)cc3s2)ccc1NC(=O)[C@H](C)N`, the GI50 – broadly, the concentration at which growth is held to half of that of the control – with IGROV-1 is 2 µM (inactive); with OVCAR-3, 8.59 µM (inactive); in the test with SF-268 it was 10 µM (inactive); with SW-620 it was 3.83 µM (inactive); in the test on NCI-H226, 2.7 µM (inactive); with DU-145 it was 12.7 µM (inactive). The GI50 in the test on SF-539 is 6.32 µM (inactive); in the test on EKVX it was 8.38 µM (inactive); in the test on NCI-H23, 12.9 µM (inactive); in the test on OVCAR-5 it was 4.56 µM (inactive); with NCI/ADR-RES, 13.2 µM (inactive); in the test with SK-MEL-28, 15.4 µM (inactive). In addition, the GI50 was 7.91 µM (inactive) in the test on RXF 393; 3.97 µM (inactive) in the test with KM12; 3.48 µM (inactive) in the test with U-251; 2.61 µM (inactive) in the test with MDA-N; 4.66 µM (inactive) in the test on 786-0; 2.07 µM (inactive) in the test on SR. For the same compound, the GI50 in the test on HOP-62 was 8.22 µM (inactive); in the test with CCRF-CEM, 1.64 µM (inactive).
Turning to `N#CC(C#N)=C(N)/C(C#N)=C/c1ccc2[nH]ccc2c1`, the GI50 in the test on IGROV-1, with OVCAR-3, in the test with SF-268, in the test with SW-620, in the test with NCI-H226 and with DU-145 was > 100 µM (inactive) each time. Also, the GI50 in the test with SF-539, with EKVX, in the test with NCI-H23, in the test on OVCAR-5, in the test with NCI/ADR-RES and in the test with SK-MEL-28 was > 100 µM (inactive) each time. In addition, the GI50 is > 91.2 µM (inactive) with RXF 393; > 100 µM (inactive) in the test with KM12; > 100 µM (inactive) in the test with U-251; > 100 µM (inactive) in the test with MDA-N; > 100 µM (inactive) in the test with 786-0; > 100 µM (inactive) in the test on SR. For the same compound, the GI50 was > 84.3 µM (inactive) in the test on HOP-62 and > 100 µM (inactive) with CCRF-CEM.
On to `CO[C@H]1C[C@H](O[C@H]2CC[C@]3(C=O)[C@H]4CC[C@]5(C)[C@@H](C6=CC(=O)OC6)CC[C@]5(O)[C@@H]4CC[C@]3(O)C2)O[C@H](C)[C@H]1O[C@@H]1O[C@H](CO[C@@H]2O[C@H](CO)[C@@H](O)[C@H](O)[C@H]2O)[C@@H](O)[C@H](O)[C@H]1O`, for which the GI50 is 0.0259 µM (active) in the test on IGROV-1; 0.0241 µM (active) in the test with OVCAR-3; 0.0356 µM (active) with SF-268; 0.0593 µM (active) with SW-620; 0.171 µM (active) in the test with NCI-H226; 0.0156 µM (active) in the test on DU-145. Also, the GI50 was 0.0353 µM (active) with SF-539; 0.0205 µM (active) in the test with EKVX; 0.016 µM (active) in the test on NCI-H23; 0.0671 µM (active) in the test on OVCAR-5; 0.034 µM (active) in the test with NCI/ADR-RES; 0.349 µM (active) in the test on SK-MEL-28. In addition, the GI50 in the test on RXF 393 is 0.0251 µM (active); with KM12, 0.104 µM (active); in the test with U-251, 0.0658 µM (active); in the test with MDA-N, 0.128 µM (active); with 786-0, 0.0272 µM (active); with SR it was 0.0188 µM (active). Also, the values for the GI50 with HOP-62 and with CCRF-CEM were 0.0158 µM (active) and > 100 µM (inactive), respectively.
